Patent US9994522B2, “Amorphous form of apremilast” (MAPI PHARMA LTD., priority 2014, dated 2018)

Legend:
Assay type in all cases: physicochemical
[1] = Physical stability on storage, XRPD pattern
Procedure: 3.1 XRPD Method • Details of XRPD method used in the tests are mentioned below: • X-ray Generator: Cu, Kα (λ=1.54179 Å). • Tube Voltage: 40 kV; Current: 40 mA. • Scanning Scope: 4 to 40 deg; • Sample rotation speed: 15 rpm. • Scanning rate: 10 deg/min
(§1) About 40 mg of scaled up amorphous sample prepared by solvent-anti-solvent precipitation (addition of water to acetone) as described in Example 6 was weighed into glass vials. The vials were stored under different testing conditions (25° C. closed vial, 25° C./60% RH, 40° C. closed vial and 40° C./75% RH) 1 week, 2 weeks, 4 weeks, and 3 months. The original scaled up amorphous form was used as a control. XRPD and mDSC were checked at the end of each time point.

[2] = Physical stability on storage, appearance
Procedure: as §1

[3] = Physical stability on storage, mDSC
Procedure: Details of mDSC methods used in the tests are mentioned below: • Method I: Amorphous samples (about 1 mg) were run a modulated DSC using Tzero aluminum pans heated from 0° C. to 200° C. at speed of 2° C./min, with modulation temperature amplitude 1.0° C. and modulation 60 s. • Method II: The two-cycle heating mDSC was run using Tzero aluminum hermetic pans with pinhole with first cycle heated from 0° C. to 160° C. at speed of 2° C./min and the second cycle from 0° C. to 260° C. at speed of 2° C./min.
as §1

[4] = stored 25° C. Closed, 3rd month
[5] = stored 25° C./60% RH, 3rd month
[6] = stored 40° C. Closed, 3rd month
[7] = stored 40° C./75% RH, 3rd month

CCOc1cc([C@@H](CS(C)(=O)=O)N2C(=O)c3cccc(NC(C)=O)c3C2=O)ccc1OC [amorphous apremilast, N-[2-[(1S)-1-(3-ethoxy-4-methoxyphenyl)-2-(methylsulfonyl)ethyl]-2,3-dihydro-1,3-dioxo-1H-isoindol-4-yl]acetamide]
XRPD Pattern ([1]; stored 25° C. Closed, 1st week): Amorphous
XRPD Pattern ([1]; stored 25° C. Closed, 2nd week): Amorphous
XRPD Pattern [1, 4]: Amorphous
XRPD Pattern ([1]; stored 25° C. Closed, 4th week): Amorphous
XRPD Pattern ([1]; stored 25° C./60% RH, 1st week): Amorphous
XRPD Pattern ([1]; stored 25° C./60% RH, 2nd week): Amorphous
XRPD Pattern [1, 5]: Amorphous
XRPD Pattern ([1]; stored 25° C./60% RH, 4th week): Amorphous
XRPD Pattern ([1]; stored 40° C. Closed, 1st week): Amorphous
XRPD Pattern ([1]; stored 40° C. Closed, 2nd week): Amorphous
XRPD Pattern [1, 6]: Amorphous
XRPD Pattern ([1]; stored 40° C. Closed, 4th week): Amorphous
XRPD Pattern ([1]; stored 40° C./75% RH, 1st week): Amorphous
XRPD Pattern ([1]; stored 40° C./75% RH, 2nd week): Amorphous
XRPD Pattern [1, 7]: Amorphous
XRPD Pattern ([1]; stored 40° C./75% RH, 4th week): Amorphous
small spike in the XRPD ([1]; stored 40° C./75% RH, after three months): 13.5 degrees two theta [2θ°]
Appearance ([2]; Initial): Light Yellow
Appearance ([2]; stored 25° C. Closed, 1st week): Light
Appearance ([2]; stored 25° C. Closed, 2nd week): Light
Appearance [2, 4]: Light
Appearance ([2]; stored 25° C. Closed, 4th week): Light
Appearance ([2]; stored 25° C./60% RH, 1st week): Light
Appearance ([2]; stored 25° C./60% RH, 2nd week): Light
Appearance [2, 5]: Light
Appearance ([2]; stored 25° C./60% RH, 4th week): Light
Appearance ([2]; stored 40° C. Closed, 1st week): Light
Appearance ([2]; stored 40° C. Closed, 2nd week): Light
Appearance [2, 6]: Light
Appearance ([2]; stored 40° C. Closed, 4th week): Light
Appearance ([2]; stored 40° C./75% RH, 1st week): Light
Appearance ([2]; stored 40° C./75% RH, 2nd week): Light
Appearance ([2]; stored 40° C./75% RH, 3rd month, listed as Amorphous Apremilast): Darken
Appearance ([2]; stored 40° C./75% RH, 3rd month, listed as apremilast): changed from light yellow to darkened yellow
Appearance ([2]; stored 40° C./75% RH, 4th week): Light
Tg of mDSC (first glass transition temperature) ([3]; Initial): 77.7 °C
Tg of mDSC (second glass transition temperature) ([3]; Initial): 133.5 °C
change of first glass transition temperature (77.7° C.) on storage ([3]; all testing conditions, up to end of the third month): did not change significantly
change of second glass transition temperature (133.6° C.) on storage ([3]; different testing conditions, first week and second week): changed irregularly and even disappeared
heat of fusion peak related to crystalline conversion ([3]; stored 25° C. (closed), 40° C. (closed) and 25° C./60% RH for three months): No heat of fusion peak related to crystalline conversion
Tg of mDSC (first glass transition temperature) ([3]; stored 25° C. Closed, 1st week): 77.7 °C
Tg of mDSC (first glass transition temperature) ([3]; stored 25° C. Closed, 2nd week): 78.5 °C
Tg of mDSC (second glass transition temperature) ([3]; stored 25° C. Closed, 2nd week): 181.3 °C
Tg of mDSC (first glass transition temperature) [3, 4]: 79.0 °C
Tg of mDSC (first glass transition temperature) ([3]; stored 25° C. Closed, 4th week): 78.2 °C
Tg of mDSC (first glass transition temperature) ([3]; stored 25° C./60% RH, 1st week): 78.4 °C
Tg of mDSC (second glass transition temperature) ([3]; stored 25° C./60% RH, 1st week): 171.4 °C
Tg of mDSC (first glass transition temperature) ([3]; stored 25° C./60% RH, 2nd week): 78.8 °C
Tg of mDSC (first glass transition temperature) [3, 5]: 79.9 °C
Tg of mDSC (first glass transition temperature) ([3]; stored 25° C./60% RH, 4th week): 78.9 °C
Tg of mDSC (first glass transition temperature) ([3]; stored 40° C. Closed, 1st week): 79.1 °C
Tg of mDSC (first glass transition temperature) ([3]; stored 40° C. Closed, 2nd week): 79.7 °C
Tg of mDSC (second glass transition temperature) ([3]; stored 40° C. Closed, 2nd week): 170.4 °C
Tg of mDSC (first glass transition temperature) [3, 6]: 83.9 °C
Tg of mDSC (first glass transition temperature) ([3]; stored 40° C. Closed, 4th week): 81.1 °C
Tg of mDSC (first glass transition temperature) ([3]; stored 40° C./75% RH, 1st week): 77.5 °C
Tg of mDSC (second glass transition temperature) ([3]; stored 40° C./75% RH, 1st week): 105.9 °C
Tg of mDSC (first glass transition temperature) ([3]; stored 40° C./75% RH, 2nd week): 77.8 °C
Tg of mDSC (second glass transition temperature) ([3]; stored 40° C./75% RH, 2nd week): 174.5 °C
Tg of mDSC (first glass transition temperature) [3, 7]: 77.7 °C
Tg of mDSC (first glass transition temperature) ([3]; stored 40° C./75% RH, 4th week): 78.0 °C
sharp endothermic peak on mDSC (related to melting point of the crystalline form) ([3]; stored 40° C./75% RH, third month): 153.4 °C
